Laboratory results reported in paper PMC4051426 (Biochemistry, 2014).

Biological target: triosephosphate isomerase from chicken muscle (cTIM), loop 6 replacement mutant (L6RM) (Gallus gallus, UniProt P00940, V167P/W168E)
Experiment: steady-state kinetics of isomerization
Assay type: biochemical

Chain of triosephosphate isomerase from chicken muscle (cTIM), loop 6 replacement mutant (L6RM) (P00940 2-248 V167P/W168E): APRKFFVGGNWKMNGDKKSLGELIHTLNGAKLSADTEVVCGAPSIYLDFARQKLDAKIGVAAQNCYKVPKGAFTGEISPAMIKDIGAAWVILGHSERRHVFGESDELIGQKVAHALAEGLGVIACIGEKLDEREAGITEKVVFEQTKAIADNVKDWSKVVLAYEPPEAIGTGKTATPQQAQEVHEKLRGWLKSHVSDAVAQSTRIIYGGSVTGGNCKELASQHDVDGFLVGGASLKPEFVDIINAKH

- kcat/Km (M^-1 s^-1): 470 M^–1 s^–1 (kcat/Km)
Structure (SMILES): O=C[C@H](O)COP(=O)(O)O [GAP, (R)-glyceraldehyde 3-phosphate]
